Source: patent publication US20240299318A1, “AMISELIMOD FOR PREVENTING, TREATING OR AMELIORATING ULCERATIVE COLITIS” (Bausch Health Ireland Limited, priority 2021, published 2024)
Read-outs that look alike come from different tables or passages of the source. Values belong to the molecule of their own block, whether it stands above or below them.

Assays:
human S1P2 receptor = human S1P2 receptor (Homo sapiens, UniProt O95136); assay: agonistic activity at human S1P2 receptor; assay type: biochemical
Sequence of human S1P2 receptor (O95136 whole entry): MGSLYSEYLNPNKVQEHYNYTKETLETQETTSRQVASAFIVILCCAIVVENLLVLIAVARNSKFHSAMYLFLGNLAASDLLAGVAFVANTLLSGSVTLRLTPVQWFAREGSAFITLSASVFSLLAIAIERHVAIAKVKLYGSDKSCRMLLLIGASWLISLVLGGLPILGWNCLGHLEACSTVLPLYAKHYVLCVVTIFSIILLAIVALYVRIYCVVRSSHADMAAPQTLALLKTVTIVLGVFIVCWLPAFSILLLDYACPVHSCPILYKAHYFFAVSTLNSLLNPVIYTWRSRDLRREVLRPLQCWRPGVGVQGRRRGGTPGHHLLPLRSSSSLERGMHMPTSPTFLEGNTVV

human S1P1 receptor = human S1P1 receptor (Homo sapiens, UniProt P21453); assay: agonistic activity at human S1P1 receptor; assay type: biochemical; conditions: compared with S1P4 and S1P5
Sequence of human S1P1 receptor (P21453 whole entry): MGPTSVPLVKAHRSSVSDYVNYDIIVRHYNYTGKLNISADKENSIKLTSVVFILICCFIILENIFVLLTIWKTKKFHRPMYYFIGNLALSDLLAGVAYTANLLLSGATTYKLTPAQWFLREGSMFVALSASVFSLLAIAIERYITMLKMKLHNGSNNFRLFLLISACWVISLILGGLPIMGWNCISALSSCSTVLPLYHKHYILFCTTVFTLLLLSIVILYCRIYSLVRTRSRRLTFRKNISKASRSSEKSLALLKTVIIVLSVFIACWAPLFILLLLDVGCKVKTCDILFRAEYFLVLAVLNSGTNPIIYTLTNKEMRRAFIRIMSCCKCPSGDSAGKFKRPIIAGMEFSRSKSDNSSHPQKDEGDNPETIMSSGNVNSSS

human S1P4 receptor = target: T1, human S1P4 receptor (Homo sapiens, UniProt O95977); assay: agonistic activity at human S1P4 receptor; assay type: biochemical; conditions: less potent than at human S1P1 receptor
T1 sequence (O95977 1-384): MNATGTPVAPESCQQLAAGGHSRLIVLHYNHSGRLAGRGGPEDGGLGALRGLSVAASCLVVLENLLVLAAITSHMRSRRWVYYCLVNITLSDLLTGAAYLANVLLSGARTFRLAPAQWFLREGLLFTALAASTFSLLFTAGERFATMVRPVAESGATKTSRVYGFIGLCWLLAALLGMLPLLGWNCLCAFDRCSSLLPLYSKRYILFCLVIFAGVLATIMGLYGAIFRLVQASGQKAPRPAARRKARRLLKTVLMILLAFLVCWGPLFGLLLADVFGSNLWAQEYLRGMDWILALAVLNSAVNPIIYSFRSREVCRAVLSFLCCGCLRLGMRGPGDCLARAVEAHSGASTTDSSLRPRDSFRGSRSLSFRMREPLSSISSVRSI

human S1Ps receptor = human S1Ps receptor (Homo sapiens, UniProt Q9H228); assay: agonistic activity at human S1Ps receptor; assay type: biochemical; conditions: less potent than at human S1P1 receptor
Sequence of human S1Ps receptor (Q9H228 whole entry): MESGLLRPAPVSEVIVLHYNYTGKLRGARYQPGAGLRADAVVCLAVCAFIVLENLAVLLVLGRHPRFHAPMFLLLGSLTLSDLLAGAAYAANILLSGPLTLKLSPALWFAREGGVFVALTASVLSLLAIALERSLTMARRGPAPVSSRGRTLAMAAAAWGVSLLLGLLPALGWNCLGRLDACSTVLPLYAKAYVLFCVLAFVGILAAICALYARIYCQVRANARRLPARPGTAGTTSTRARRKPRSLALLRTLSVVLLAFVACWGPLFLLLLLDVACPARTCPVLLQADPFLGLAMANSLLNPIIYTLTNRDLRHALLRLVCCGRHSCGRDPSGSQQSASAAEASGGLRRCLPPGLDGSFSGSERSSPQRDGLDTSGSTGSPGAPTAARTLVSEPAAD

S1P3 receptor = S1P3 receptor (Homo sapiens, UniProt Q99500); assay: agonistic activity at S1P3 receptor; assay type: biochemical
Sequence of S1P3 receptor (Q99500 whole entry): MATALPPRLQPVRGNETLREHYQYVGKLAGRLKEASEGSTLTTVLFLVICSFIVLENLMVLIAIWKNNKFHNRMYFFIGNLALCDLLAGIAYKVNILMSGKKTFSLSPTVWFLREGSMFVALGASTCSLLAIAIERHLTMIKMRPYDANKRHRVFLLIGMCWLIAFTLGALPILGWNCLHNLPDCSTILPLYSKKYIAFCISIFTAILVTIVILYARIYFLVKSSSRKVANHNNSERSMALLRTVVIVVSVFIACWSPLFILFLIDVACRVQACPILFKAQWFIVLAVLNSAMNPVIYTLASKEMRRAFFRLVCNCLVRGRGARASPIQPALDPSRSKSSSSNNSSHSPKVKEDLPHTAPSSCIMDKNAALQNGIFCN

[1] = half-life and accumulation to steady state; assay type: in vivo, humans; conditions: for half-life: in humans; for period of accumulation to steady state: inferred from long half-life
[2] = study of amiselimod 0.4 mg QD: steady state, AUC, Cmax, lymphocyte counts; assay type: in vivo; conditions: for increase of steady-state AUC on day 13 compared with day 1 / increase of steady-state Cmax on day 13 compared with day 1: amiselimod 0.4 mg QD
Method: Amiselimod has a half-life of about 400 hours. For example, amiselimod has a terminal half-life that is about 20 times longer than etrasimod, which has a half-life of about 17-20 hours. In a study, a daily dose of amiselimod achieved a therapeutic steady state after 14 days of 0.4 mg QD administration. On day 13, the steady-state AUC and Cmax for amiselimod 0.4 mg QD increased by 10-fold for amiselimod and by 4-fold for amiselimod-P compared with day 1. This increase in AUC and Cmax correlated with gradual decrease in absolute lymphocyte counts. The reduction in lymphocyte counts was maintained after amiselimod discontinuation, indicating a persistent therapeutic amiselimod AUC owing in part to the associated half-life. Accordingly, amiselimod may be administered in accordance with the methods described herein less frequently than once daily to achieve the desired treatment such, as for example, maintenance of Ulcerative Colitis. In some embodiments, the second dose may be administered during the second administration period (e.g., the maintenance dose phase) QD, BID, TID, or QID every other day during the second administration period or every two days during the second administration period or every three days during the second administration period or every four days during the second administration period or every five days during the second administration period or every six days during the second administration period or every seven days during the second administration period.

healthy subjects = assay: Phase 1 randomized, double-blind, placebo-controlled safety study, upwardly titrated amiselimod; assay type: in vivo, human; conditions: for discontinuation rate: safety population, 95 subjects per group
Method: The safety of amiselimod in healthy subjects was evaluated in a Phase 1 randomized, double-blind, placebo-controlled study where the dose of amiselimod was upwardly titrated.
A randomized, double-blind, multiple-dose, placebo-controlled, parallel study with a nested crossover design evaluated the safety and tolerability profile of amiselimod. Healthy adults were randomized in a 2:1:1 ratio during a 28-day treatment period accordingly: a single dose of placebo followed by oral amiselimod (upwardly titrated in doses ranging from 0.4 to 1.6 mg to achieve steady-state concentrations); a single dose of oral moxifloxacin 400 mg followed by placebo; or placebo followed by a single dose of moxifloxacin 400 mg (for the safety analysis, moxifloxacin arms were combined). The safety population included all subjects who received at least one dose of treatment. Adverse events (AE) and serious AEs were collected. Treatment-emergent AEs were defined as an AE that was starting or worsening at the time of or after study drug administration. Changes in clinical laboratory parameters (including lymphocyte counts), physical examinations, vital signs, and electrocardiogram parameters (including heart rate, PR, QRS, and QT intervals) were recorded. Subjects were permitted to withdraw if lymphocyte counts were ≤0.2×10^9/L.

[3] = tested on: peripheral blood lymphocytes (PBLs); assay: reduction of peripheral blood lymphocytes after oral dose, mice; assay type: in vivo; conditions: oral dose of 0.1 mg/kg or higher
[4] = tested on: colitis in the adoptive transfer of CD4+CD45RBhigh T cells; assay: colitis in the adoptive transfer of CD4+CD45RBhigh T cells in SCID mice; assay type: in vivo; conditions: oral administration
[5] = tested on: peripheral blood lymphocytes (PBLs); assay: reduction of peripheral blood lymphocytes after oral dose, rats; assay type: in vivo; conditions: oral dose of 0.1 mg/kg or higher
heart rate = assay: negative chronotropic activity; conditions: in vivo
Description: Chronotropic effects in the heart can include changes in the heart rate or rhythm. Negative chronotropic effects are those that result in a decreased heart rate and include bradyarrhythmia (bradycardia).

[6] = tested on: peripheral blood lymphocytes (PBLs); assay: reduction of peripheral blood lymphocytes after oral dose, cynomolgus monkeys; assay type: in vivo; conditions: oral dose of 0.1 mg/kg or higher
[7] = comparator etrasimod; cited from earlier work

agonistic activity at human S1P2 receptor (human S1P2 receptor): no agonistic activity | agonistic activity at human S1P4 receptor (human S1P4 receptor): agonistic activity | agonistic activity at human S1Ps receptor (human S1Ps receptor): agonistic activity | agonistic activity at S1P3 receptor (S1P3 receptor): no agonistic activity
Structure (SMILES): CCCCCCCOc1ccc(CCC(N)(CO)COP(=O)(O)O)cc1C(F)(F)F (stereo in doubt) [(S)-MT-1303-P]
agonistic activity at human S1P1 receptor (human S1P1 receptor): more potently than at human S1P4 receptor and human S1Ps receptor

half-life [1]: approximately 400 hours | period of accumulation to steady state [1]: about 10 weeks | increase of steady-state AUC on day 13 compared with day 1 [2]: 4 fold | increase of steady-state Cmax on day 13 compared with day 1 [2]: 4 fold
Structure (SMILES): CCCCCCCOc1ccc(CC[C@@](N)(CO)COP(=O)(O)O)cc1C(F)(F)F [MT-1303-P]

Structure (SMILES): COc1c(N2C[C@@H]3CCCN[C@@H]3C2)c(F)cc2c(=O)c(C(=O)O)cn(C3CC3)c12 [Moxifloxacin, moxifloxacin, reference compound]
Constipation (healthy subjects; Days 1-26, n = 95): 11 (12) n (%) | Dizziness (healthy subjects; Days 1-26, n = 95): 1 (1) n (%) | Headache (healthy subjects; Days 1-26, n = 95): 12 (13) n (%) | Number of subjects with an adverse event (healthy subjects; Days 1-26, n = 95): 49 (52) n (%) | Upper respiratory tract infection (healthy subjects; Days 1-26, n = 95): 1 (1) n (%) | White blood cell count decreased (healthy subjects; Days 1-26, n = 95): 0 n (%) | Constipation (healthy subjects; Days 27+, n = 46): 0 n (%) | Dizziness (healthy subjects; Days 27+, n = 46): 1 (2) n (%) | Headache (healthy subjects; Days 27+, n = 46): 0 n (%) | Number of subjects with an adverse event (healthy subjects; Days 27+, n = 46): 7 (15) n (%) | Upper respiratory tract infection (healthy subjects; Days 27+, n = 46): 0 n (%) | White blood cell count decreased (healthy subjects; Days 27+, n = 46): 0 n (%) | discontinuation rate (healthy subjects): 4%

half-life ([1]; human, in vivo, read-out: half-life (converted)): ~16.7 days | half-life [1]: approximately 400 hours | period of accumulation to steady state [1]: about 10 weeks | terminal half-life relative to etrasimod ([1]; longer than etrasimod): about 20 times | time to therapeutic steady state ([2]; 0.4 mg QD administration): 14 days | increase of steady-state AUC on day 13 compared with day 1 [2]: 10 fold | increase of steady-state Cmax on day 13 compared with day 1 [2]: 10 fold
Structure (SMILES): CCCCCCCOc1ccc(CCC(N)(CO)CO)cc1C(F)(F)F [amiselimod]
number of peripheral blood lymphocytes (PBLs) [3]: significantly reduced | colitis [4]: reduced colitis | effect on colitis compared with murine anti-TNF-α antibody [4]: comparable to that of a murine anti-tumor necrosis factor-α (TNF-α) antibody | number of peripheral blood lymphocytes (PBLs) [5]: significantly reduced | negative chronotropic activity (heart rate): lack of negative chronotropic activity | number of peripheral blood lymphocytes (PBLs) [6]: significantly reduced | Constipation (healthy subjects; Days 1-13, n = 95): 8 (8) n (%) | Dizziness (healthy subjects; Days 1-13, n = 95): 5 (5) n (%) | Headache (healthy subjects; Days 1-13, n = 95): 4 (4) n (%) | Number of subjects with an adverse event (healthy subjects; Days 1-13, n = 95): 55 (58) n (%) | Upper respiratory tract infection (healthy subjects; Days 1-13, n = 95): 1 (1) n (%) | White blood cell count decreased (healthy subjects; Days 1-13, n = 95): 18 (19) n (%) | Constipation (healthy subjects; Days 14+, n = 92): 6 (7) n (%) | Dizziness (healthy subjects; Days 14+, n = 92): 6 (7) n (%) | Headache (healthy subjects; Days 14+, n = 92): 11 (12) n (%) | Number of subjects with an adverse event (healthy subjects; Days 14+, n = 92): 57 (62) n (%) | Upper respiratory tract infection (healthy subjects; Days 14+, n = 92): 6 (7) n (%) | White blood cell count decreased (healthy subjects; Days 14+, n = 92): 13 (14) n (%) | amiselimod-related serious AE of atrial fibrillation (healthy subjects; day 26, after amiselimod 1.6 mg for 3 of the preceding 4 days): One subject | mean absolute lymphocyte count, nadir (healthy subjects; day 27): 0.424 thou/μL | changes to vital signs, physical examinations, and ECG parameters (healthy subjects; in vivo): within normal limits | tolerability (healthy subjects; multiple, upwardly titrated doses, healthy subjects): generally well tolerated | mean absolute lymphocyte count (healthy subjects; predose): 1.681 thou/μL | discontinuation rate (healthy subjects): 8% | reduction in lymphocyte counts after discontinuation ([2]; after amiselimod discontinuation): maintained

Structure (SMILES): O=C(O)C[C@H]1CCc2c1[nH]c1ccc(OCc3ccc(C4CCCC4)c(C(F)(F)F)c3)cc21 [etrasimod]
half-life [7]: 0.708 to 0.833 days
